# According to patent publication US8906946B2, “TRPM8 receptor antagonists” (Dompe' S.p.A., priority 2011, dated 2014):
# Assays:
# CYP2C9 = CYP2C9 (Homo sapiens, UniProt P11712); assay: CYP inhibition 2C9; format: in vitro ADME; conditions: 2C9, 10 μM
# [1] = Plasma Protein Binding, rat; format: in vitro ADME
# hTRPV4 channels = biological target: T1, hTRPV4 channels (Homo sapiens, UniProt Q9HBA0); assay: Selectivity analysis, calcium influx assay, hTRPV4 in CHO cells; format: cell-based
# T1 construct: expressed in transfected cells; host or cells: CHO
# Description: The objective of this study was to evaluate the effects in vitro of compound 1 on 3 cloned human channels expressed in HEK293 or CHO cells using the Fluo-8 calcium kit (AAT Bioquest, Inc.), and a Fluorescence Imaging Plate Reader (FLIPR^TETRA™) instrument. The following 3 cloned human channels were evaluated in this study. • 1. Cloned hTRPM8 channels (encoded by the human TRPM8 gene, stably expressed in CHO cells), • 2. Cloned hTRPV1 channels (encoded by the human TRPV1 gene, stably expressed in HEK293 cells), • 3. Cloned hTRPV4 channels (encoded by the human TRPV4 gene, stably expressed in CHO cells).
# The effects of […] (0.001, 0.01, 1, and 10 μM) of compound (1) were evaluated on these three TRP channels (n>3) using the following experimental procedure for each channel tested:
# The ability of compound (1) to act as an antagonist of TRPV4 was evaluated with a calcium influx assay. The signal elicited in the presence of the positive control agonist (10 μM GSK1016790A) was set to 100% and the signal in the presence of the antagonist (5 μM ruthenium red) was set to 0. Values were considered significant if the test article mean was three or more standard deviations away from the positive control agonist mean.
# T1 sequence (Q9HBA0 whole entry): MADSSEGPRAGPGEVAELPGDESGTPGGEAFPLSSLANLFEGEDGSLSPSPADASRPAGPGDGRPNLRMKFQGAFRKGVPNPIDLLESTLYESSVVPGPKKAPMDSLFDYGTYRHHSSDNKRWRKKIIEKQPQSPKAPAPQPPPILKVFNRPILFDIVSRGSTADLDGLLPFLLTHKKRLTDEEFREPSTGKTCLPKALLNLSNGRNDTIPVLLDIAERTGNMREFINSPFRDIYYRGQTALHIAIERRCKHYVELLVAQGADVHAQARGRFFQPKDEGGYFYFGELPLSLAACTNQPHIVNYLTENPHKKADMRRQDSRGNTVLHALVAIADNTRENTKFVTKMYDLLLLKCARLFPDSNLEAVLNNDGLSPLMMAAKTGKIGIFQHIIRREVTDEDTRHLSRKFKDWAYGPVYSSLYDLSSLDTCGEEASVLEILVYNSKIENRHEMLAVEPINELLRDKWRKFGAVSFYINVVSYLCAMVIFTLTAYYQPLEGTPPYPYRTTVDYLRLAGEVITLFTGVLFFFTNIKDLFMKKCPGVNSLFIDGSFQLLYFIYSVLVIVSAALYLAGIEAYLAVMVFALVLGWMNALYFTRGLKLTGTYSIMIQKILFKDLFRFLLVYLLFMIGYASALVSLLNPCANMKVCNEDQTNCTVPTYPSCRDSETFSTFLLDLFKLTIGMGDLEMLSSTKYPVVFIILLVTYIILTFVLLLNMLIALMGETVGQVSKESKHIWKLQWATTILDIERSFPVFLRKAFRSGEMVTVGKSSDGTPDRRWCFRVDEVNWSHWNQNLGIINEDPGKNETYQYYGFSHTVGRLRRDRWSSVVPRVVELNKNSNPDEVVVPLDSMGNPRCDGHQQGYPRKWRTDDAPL
# Sequence of CYP2C9 (P11712 whole entry): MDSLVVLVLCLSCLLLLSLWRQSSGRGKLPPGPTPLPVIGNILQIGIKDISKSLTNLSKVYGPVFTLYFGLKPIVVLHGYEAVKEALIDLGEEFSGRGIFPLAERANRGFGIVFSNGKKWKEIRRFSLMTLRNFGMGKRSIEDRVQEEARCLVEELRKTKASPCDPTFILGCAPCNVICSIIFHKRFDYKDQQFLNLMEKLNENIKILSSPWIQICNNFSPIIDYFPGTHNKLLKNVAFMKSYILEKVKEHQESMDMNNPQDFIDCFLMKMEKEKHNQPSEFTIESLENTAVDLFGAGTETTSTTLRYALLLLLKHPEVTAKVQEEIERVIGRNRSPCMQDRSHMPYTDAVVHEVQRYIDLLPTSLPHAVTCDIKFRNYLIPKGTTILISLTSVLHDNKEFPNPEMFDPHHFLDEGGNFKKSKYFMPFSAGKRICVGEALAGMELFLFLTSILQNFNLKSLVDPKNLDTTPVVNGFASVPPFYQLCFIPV
smiles,measurement,setting,value
"Cl.Clc1c(OCCNCc2ccco2)ccc2ccccc12 [Compound 1, 2-[(1-chloronaphthalen-2-yl)oxy]-N-(furan-2-ylmethyl)ethanaminium chloride]",inhibition at 10 µM,CYP2C9,63.1%
same,fraction unbound at 10 μM,[1],0.03
same,inhibition at 0.001 µM,"hTRPV4 channels; 0.001 μM, 10 μM GSK1016790A = 100%, 5 μM ruthenium red = 0, read-out: normalized % inhibition TRPV4",13.3%
same,inhibition at 0.01 µM,"hTRPV4 channels; 0.01 μM, 10 μM GSK1016790A, read-out: normalized % inhibition TRPV4",9.03%
same,inhibition at 0.1 µM,"hTRPV4 channels; 0.1 μM, 10 μM GSK1016790A, read-out: normalized % inhibition TRPV4",12.2%
same,inhibition at 1 µM,"hTRPV4 channels; 1 μM, 10 μM GSK1016790A, read-out: normalized % inhibition TRPV4",1.97%
same,inhibition at 10 µM,"hTRPV4 channels; 10 μM, 10 μM GSK1016790A, read-out: normalized % inhibition TRPV4",85.7%
